Laboratory results reported in ChEMBL document CHEMBL1817565, “Synthesis and antimalarial evaluation of novel benzopyrano[4,3-b]benzopyran derivatives” (Bioorg Med Chem, 2011).
pIC50: −log10 of the molar value.

Tests used:
[1] = Cytotoxicity against human NFF cells at 50 uM after 3 days by sulforhodamine B assay; assay type: cell-based; settings: read-out: INH
[2] = Selectivity ratio of cytotoxicity against human NFF cells to IC50 for Plasmodium falciparum 3D7; assay type: cell-based
[3] = test system: Plasmodium falciparum; assay: Antimalarial activity against chloroquine-sensitive Plasmodium falciparum 3D7 infected in erythrocytes assessed as [3H] incorporation after 48 hrs by scintillation counter; assay type: functional, organism-based

| SMILES | cytotoxicity at 72 h, 50 µM [1] [%] | selectivity ratio [2] | pIC50 [3] |
| --- | --- | --- | --- |
| COc1cc(OC)c2c(c1OC)O[C@H]1c3c(OC)cc(OC)c(OC)c3O[C@H](c3ccc(Br)cc3)[C@H]1[C@@H]2/C=C/c1ccc(Br)cc1 | 46.3 | 10 | 5.54 |
| COc1cc(OC)c2c(c1OC)O[C@H]1c3c(OC)cc(OC)c(OC)c3O[C@H](c3ccc(Cl)cc3)[C@H]1[C@@H]2/C=C/c1ccc(Cl)cc1 | 98.4 |  | 5.48 |
| COc1ccc(/C=C/[C@@H]2c3c(OC)cc(OC)c(OC)c3O[C@H]3c4c(OC)cc(OC)c(OC)c4O[C@H](c4ccc(OC)cc4)[C@@H]23)cc1 | 43.2 | 10 | 5.49 |
| COc1cc(OC)c2c(c1OC)O[C@H]1c3c(OC)cc(OC)c(OC)c3O[C@H](c3ccc(C)cc3)[C@H]1[C@@H]2/C=C/c1ccc(C)cc1 | 47.2 | 10 | 5.72 |
| COc1cc(OC)c2c(c1OC)O[C@H]1c3c(OC)cc(OC)c(OC)c3O[C@H](c3ccccc3)[C@H]1[C@@H]2/C=C/c1ccccc1 [DEPENDENSIN] | 46.9 | 10 | 5.41 |
